Data set [1] in a line: In vivo pharmacokinetic study of solid dispersions. More on the design: species or system Sprague Dawley (SD) rats. The settings on record: male SD rats, intragastric 300 mg/kg (as compound of formula A), plasma. The method, then:
According to Table 16, three solid dispersions, namely, formulation of API+Soluplus, formulation of API+PVP VA64 and formulation of API+HPC SSL, were selected to conduct in vivo pharmacokinetic tests with the corresponding amorphous form of API to study the pharmacokinetic characteristics of solid dispersions with different formulations in animals.
Method: solid dispersions with different formulations were evaluated with the pharmacokinetic characteristics of male Sprague Dawley (SD) rats after intragastric administration.
Materials: SD Rats (Male, 200-250 g, 6-8 Weeks Old, Zhejiang Weitong Lihua).
Steps: the solid dispersion with the formulation of Table 16 was tested by intragastric administration of 300 mg/kg (dosage calculated according to the compound of formula A) to SD rats, and the solvent was 25 mM citrate buffer pH3 containing 5% Tween 80. The animals were free to eat and drink water. Blood was collected from the jugular vein 15 min (0.25 h), 30 min (0.5 h), 60 min (1 h), 2 h, 4 h, 6 h, 8 h and 24 h after administration. Whole blood was collected in an anticoagulant tube containing EDTA-K2, and after thorough mixing, it was centrifuged at 4° C. and 4000 g for 5 minutes to separate plasma. Plasma samples were stored at −75±15° C. until the blood concentration of the compound of formula A was determined by LC-MS/MS. The relevant pharmacokinetic parameters were calculated using the non-compartmental model and linear/log trapezoidal method of Phoenix WinNonlin 6.1.

A short description of data set [2]: Redispersion solubility test of solid dispersions (SGF, then SGF + 2 times volume FaSSIF). In kind it is physicochemical. As to conditions: Concentration 1 mg/mL. As to the method:
[…] After stirring at 37° C. for 0.25 h and 0.5 h at 500 rpm, about 200 μL of the suspension was centrifuged at 14,000 rpm for 5 min, and the supernatant was diluted by 6 times with diluent for HPLC analysis. After sampling at 0.5 h, 2 times the volume of SGF of FaSSIF was immediately added to the suspension and the mixture was stirred for another 0.25 h, 0.5 h and 1.5 h, and then sampled for HPLC analysis and pH testing.

Data set [3] is described as follows: Solubility of rapid solvent evaporation products in FaSSIF. The format is physicochemical. As to conditions: fassif, thermodynamic from solid. The method, then: About 10 mg of the API control of the compound of formula A and 40 mg of the polymer carrier were transferred to 1 mL of DCM:EtOH=9:1 (v/v) to prepare a solution with 20% drug loading. The resulting clear solution was rapidly evaporated at 80° C. until there was no liquid to prepare a solid dispersion. The API control of the compound of formula A was also treated separately in the same manner.

A short description of data set [4]: Chirality stability in solvents (other studies). The format is physicochemical.
Data set [5] is described as follows: Approximate solubility test in solvents. In kind it is physicochemical. As to conditions: organic solvent or mixture, thermodynamic from solid. As to the method: About 5 mg of the API control of Formula A was weighed into a 1.5 mL glass vial, and then a certain amount of different solvents (as shown in Table 1) were gradually added until the solid dissolved or the total volume reached 1 mL. The compound of formula A has a high approximate solubility in a mixed solvent of DCM and MeOH.
Different solvents have different solubility for the compound of formula A, considering the stability factor, DCM:EtOH (9:1, v/v) and acetone:water (9:1, v/v) may be used as solvent systems for the preparation of solid dispersions of the compound of formula A.

Molecules are shown by their SMILES. Converted amounts (≈) assume the structure as drawn.

Regarding `O=C1CC[C@H](N2Cc3cc(C(=O)N[C@H](c4ccc(Cl)cn4)C4CCC4)ccc3C2=O)C(=O)N1` [Amorphous form of API, N—((S)-(5-chloropyridin-2-yl)(cyclobutyl)methyl)-2-((S)-2,6-dioxopiperidin-3-yl)-1-oxoisoindoline-5-carboxamide], the total exposure AUC(0-inf) in data set [1] (Sprague Dawley, rat, po) amounted to 112 µg·h/mL. This compound also yielded an AUC(0-t) in data set [1] (Sprague Dawley, rat, po) of 111 µg·h/mL. The Cmax in data set [1] (Sprague Dawley, rat, po) came to 18700 ng/mL. Besides, in data set [1] (Sprague Dawley, rat, po), the Tmax is 1 h. Moreover, the half-life in data set [1] (Sprague Dawley, rat, po) was 4.06 h. Further, in data set [1], the AUClast/D is 369 ng·kg·h/mL/mg. Moreover, the “End point pH” value in data set [2] is recorded as 6.55. Moreover, the solubility at 0.75 h worked out at 460 µg/mL in data set [2] (SGF + 2 times volume FaSSIF, fassif, thermodynamic from solid, 37° C., read-out: Redispersion solubility, Step 2: SGF + 2 times volume FaSSIF (0.75 hr)) and 600 µg/mL (≈ 1290 µM) in data set [3] (0.75 h). Moreover, the solubility at 1 h came to 440 µg/mL in data set [2] (SGF + 2 times volume FaSSIF, fassif, thermodynamic from solid, 37° C., read-out: Redispersion solubility, Step 2: SGF + 2 times volume FaSSIF (1.0 hr)) and 570 µg/mL (≈ 1220 µM) in data set [3] (1 h). Moreover, the solubility at 2 h in data set [2] (SGF + 2 times volume FaSSIF, pH 6.55, fassif, thermodynamic from solid, 37° C., read-out: Redispersion solubility, Step 2: SGF + 2 times volume FaSSIF (2.0 hr)) worked out at 270 µg/mL; in data set [3] (2 h), 450 µg/mL (≈ 964 µM). Also, the solubility at 0.25 h in data set [2] (simulated gastric fluid (SGF), simulated gastric fluid, thermodynamic from solid, 37° C., read-out: Redispersion solubility, Step 1: SGF (0.25 hr)) is 960 µg/mL; in data set [3] (0.25 h), 470 µg/mL (≈ 1010 µM). Further, the solubility at 0.5 h was 980 µg/mL in data set [2] (simulated gastric fluid (SGF), simulated gastric fluid, thermodynamic from solid, 37° C., read-out: Redispersion solubility, Step 1: SGF (0.5 hr)) and 490 µg/mL (≈ 1050 µM) in data set [3] (0.5 h).
Consider `O=C1CC[C@H](N2Cc3cc(C(=O)N[C@H](c4ccc(Cl)cn4)C4CCC4)ccc3C2=O)C(=O)N1` [compound of formula A, N—((S)-(5-chloropyridin-2-yl)(cyclobutyl)methyl)-2-((S)-2,6-dioxopiperidin-3-yl)-1-oxoisoindoline-5-carboxamide], for which the Chirality stability result was “rapidly racemized” in data set [4] (in MeOH); “better chirality stability” in data set [4] (in acetone and ethanol). Moreover, the solubility in data set [5] (solvent ACN), in data set [5] (solvent Acetone), in data set [5] (solvent Acetone:ACN (1:1)), in data set [5] (solvent Acetone:DCM (1:1)), in data set [5] (solvent Acetone:DCM (4:1)) and in data set [5] (solvent Acetone:THF (1:1)) was less than 5000 µg/mL each time. Also, the solubility in data set [5] (solvent DCM) was less than 5000 µg/mL; in data set [5] (solvent DCM:MeOH (1:1)), 25000 to 50000 µg/mL; in data set [5] (solvent DCM:MeOH (2:1)), 50000 to 100000 µg/mL; in data set [5] (solvent DCM:MeOH (4:1)) it was 50000 to 100000 µg/mL; in data set [5] (solvent DCM:MeOH (5:1)), 50000 to 100000 µg/mL; in data set [5] (solvent DCM:MeOH (7:1)) it was 50000 to 100000 µg/mL. Besides, the solubility is 25000 to 50000 µg/mL in data set [5] (solvent DCM:MeOH (9:1)); less than 5000 µg/mL in data set [5] (solvent DCM:MeOH (99:1)); less than 5000 µg/mL in data set [5] (solvent DCM:THF (1:1)); less than 5000 µg/mL in data set [5] (solvent DCM:THF (4:1)); less than 5000 µg/mL in data set [5] (solvent Ethyl acetate); less than 5000 µg/mL in data set [5] (solvent MeOH). The solubility in data set [5] (solvent THF) was less than 5000 µg/mL; in data set [5] (v/v), solvent Acetone:Water (9:1)), 15000 to 50000 µg/mL; in data set [5] (v/v), solvent DCM:EtOH (9:1)), 5000 to 15000 µg/mL.
